Columns and labels:
Human whole blood = test: Observation on hemolysis after mixing whole blood with equal volume of detergent liquid; format: cell-based; further: key: Hml: Hemolyzed; Not hemolyzed; FCD: Failure in chromatographic development
Description: Deionized water, physiological saline (150 mmol/L sodium chloride liquid), and a 10 mmol/L phosphate buffer (pH 7.5, 150 mmol/L sodium chloride) were prepared.
Human whole blood (100 μL) collected using a tube containing heparin anticoagulant was mixed with an equal volume of each detergent liquid (100 μL) to prepare each sample. After 10 minutes from the mixing, hemolysis in each sample was observed visually. The “hemolysis” was judged on the basis of a transparent state caused by a solubilization of erythrocytic membrane and elution of red pigments such as hemoglobin from erythrocytes.
Total concentrations of five detergents in the four mixed liquids were 0.2, 1.0, 5.0, and 20%, respectively.

mite-specific IgE = test: Enzyme immunochromatographic measurement of specific IgE in hemolyzed whole-blood-derived sample; design: species or system human
Description: A nitrocellulose membrane (HF180; pore size=5 to 8 μm; Millipore) was cut into a rectangular piece (5 mm×25 mm). An aqueous solution of extracted mite allergen proteins (1 mg/mL) was applied linearly with a width of 1 mm at the position of 15 mm from an end (upstream) of the membrane. In this connection, the aqueous solution was previously prepared by diluting a Dermatophagoides pteronyssinus extract (Glia) with a 5 mmol/L borate buffer (pH 8.5) and dialyzing the diluted solution.
A plastic adhesive sheet (BioDot) was cut into a rectangular piece (5 mm×60 mm). […] In this connection, adjacent pieces attached on the adhesive sheet were overlapped with each other at a width of approximately 1 mm.
Each aliquot (50 μL) of whole-blood-derived samples prepared by hemolysis and solubilization was dispensed into each well of a microplate. […]
As the above samples, sample 1 (mite-specific IgE=0 IU/mL), sample 2 (mite-specific IgE=3 IU/mL), and sample 3 (mite-specific IgE=10 IU/mL) were used. The amounts of mite-specific IgE were measured by a conventional quantitative analysis (AlaSTAT specific IgE antibody measuring kit; obtained from Iatron and manufactured by DPC, US) and shown by IU/mL, an international standard unit.

[1] = Example 1, detergent liquid 1% (final half), visual, 10 min after mixing
[2] = Example 1, detergent liquid 5% (final half), visual, 10 min after mixing
[3] = Example 1, detergent liquid 20% (final half), visual, 10 min after mixing
[4] = Example 2, detergent liquid 1% (final half)
[5] = Example 2, detergent liquid 5% (final half)
[6] = Example 2, detergent liquid 20% (final half)

| Compound | Hemolysis (Human whole blood; Example 1, detergent liquid 0.2% (final half), visual, 10 min after mixing) | Hemolysis (Human whole blood; [1]) | Hemolysis (Human whole blood; [2]) | Hemolysis (Human whole blood; [3]) | Hemolysis (Human whole blood; Example 2, detergent liquid 0.2% (final half)) | Hemolysis (Human whole blood; [4]) | Hemolysis (Human whole blood; [5]) | Hemolysis (Human whole blood; [6]) | solubilization of whole blood, immunochromatographic staining, and immunochromatographic development (mite-specific IgE) |
| --- | --- | --- | --- | --- | --- | --- | --- | --- | --- |
| CCCCCCCCCCCCOS(=O)(=O)[O-].[Na+] [sodium dodecyl sulfate] | Hml | Hml | Hml | Hml | Hml | Hml | Hml | Hml | – |
| polyoxyethylene monolaurate [Tween 20] | – | – | – | Hml | – | – | – | Hml | – |
| CCCCCCCCCCCCCCCCCC[N+](C)(C)CC(=O)[O-] [Amphitol 86B, stearyl betaine] | – | Hml | Hml | Hml | – | Hml | Hml | Hml | cannot be performed |
| polyoxyethylene laurylether [Emulgen 108] | – | Hml | Hml | Hml | – | Hml | Hml | Hml | – |
| C[C@H](CCC(=O)NCCC[N+](C)(C)CCCS(=O)(=O)[O-])[C@H]1CC[C@H]2[C@@H]3[C@H](O)C[C@@H]4C[C@H](O)CC[C@]4(C)[C@H]3C[C@H](O)[C@]12C [CHAPS, 3-[(3-cholamido-propyl)dimethyl-ammonio]propanesulfonic acid] | – | Hml | Hml | Hml | – | Hml | Hml | Hml | – |
| polyethylene glycol mono-para-iso-octylphenyl ester [Triton X-100] | – | Hml | Hml | Hml | – | Hml | Hml | Hml | cannot be performed |

From patent US20060286679A1, “Immunochromatographic method” (Mitsubishi Kagaku latron, Inc., priority 2003, published 2006)
